Laboratory results as given in patent publication US10583115B2, “Modulators of 14-3-3 functionality and uses thereof” (University of South Australia, priority 2014, dated 2020).
“Also recorded” adds a separate entry of the source.

Key:
A549 cells [1] = assay: A549 cell viability by MTS assay; type: cell-based, human; conditions: 48 hrs treatment
Experimental: A549 cells (2500/well) were plated in 96 well trays in DMEM with 0.5% FBS and cultured at 37° C. with 5% CO2 overnight. The following day RB compounds were added and cells incubated for a further 48 hours prior to removal of the medium and replacement with MTS reagent diluted 1:6 in Dulbecco's PBS. The cells were incubated at 37° C. for a further 4 hours and the conversion of MTS to the coloured formazan compound determined by measurement of absorbance at 490 nm.

A549 cells [2] = assay: A549 colony assay in soft agar; type: cell-based, human; conditions: 14 days
Experimental: A549 cells (7500) were plated in 0.33% low-melting point agarose in DMEM with 10% FBS with and without RB compounds over a 0.5% low-melting point agarose base. Cells were incubated at 37° C. with 5% CO2 for 14 days and then colonies were photographed and analysed using Image J.

Jurkat cells [3] = assay: Immunoblotting of signalling and apoptosis markers in Jurkat cells; type: cell-based; conditions: 7.5 μM, time course
Experimental: Jurkat cells were treated at 5×10^5/ml in RPMI with 0.5% FBS as detailed. Cells were harvested by centrifugation at 1500 g for 5 mins and washed with PBS prior to lysis in NP40 lysis buffer (10 mM Tris-HCl pH7.4, 137 mM NaCl, 10% glycerol, 1% NP40, protease inhibitor (Roche), 4 mM NaF, 2 mM Na-vanadate, 10 mM β-glycerophosphate, 1 mM Na-pyrophosphate, 1 mM Na-molybdate) for 30 minutes on ice with vortexing. The lysates were clarified at 13,000 rpm for 15 minutes at 4° C. and protein concentration determined using BCA assay (Pierce). 30-40 μg of lysate were run on to Criterion-XT 4-12% Bis-Tris gels (Bio-Rad), followed by transfer onto nitrocellulose. The filters were blocked for 30 minutes at room temperature in TNT buffer (10 mM Tris-HCl pH8, 150 mM NaCl, 0.05% Tween-20) containing blocking buffer (Roche), prior to incubation with antibodies over night. Antibodies used were from Cell Signalling; Phospho-p38 MAPK(#4571), Phospho-SAPK/JNK(81E11), Phospho-p44/42 MAP kinase (#9101), Phospho-AKT S473 (#9271), p44/42 MAP kinase (#9102), AKT (#9272), BID (#2002), caspase-3 (#9602), PARP (#9542), and Santa Cruz Biotechnology; pan 14-3-3 K19 (sc-629). Following antibody binding, filters were washed in TNT for 1 hr at room temperature, incubated with 1/12,500 anti-rabbit or anti-mouse HRP secondary antibody (Pierce) for 1 hr at room temperature and finally washed for 1 hr with TNT before incubation with Clarity western ECL reagent (Bio-Rad). Filters were exposed on a LAS 4000 imager. Blots were analysed using Multi-gauge/Colony software FUJI FILM).

sphingosine kinases (SK) = assay: Effect on sphingosine kinase (SK) activity; conditions: data not shown
Jurkat cells [4] = assay: Jurkat apoptosis assays (TMRE, caspase 3, Annexin V, viability by flow cytometry); type: cell-based
Experimental: (§1) Jurkat cells were routinely set up in apoptosis assays at 2×10^5/ml in RPMI with 0.5% FBS. After treatment, cells were stained either with 200 nM TMRE, 5 μl/ml NucView™ (Biotium), or Annexin V-FITC (Roche) for 15 mins prior to analysis by flow cytometry. Forward- and side-scatter properties were used to exclude debris and a ‘viable’ gate corresponding to the intact, PI negative cell population was used for fluorescence analysis. For A549, cells at 90% confluency were treated with RB compounds for 48 hrs in DMEM with 0.5% FBS. After treatment, cells were released with trypsin and then stained with NucView™ prior to analysis by flow cytometry.

A549 cells [5] = assay: A549 caspase-3 activation (NucView, flow cytometry); type: cell-based, human; conditions: 48 hrs treatment
Experimental: as §1

A549 xenograft = A549 xenograft study; type: in vivo, BALB/c nude mice
Experimental: All experimental procedures involving animals were conducted in accordance with the NHMRC Australian Code for the Care and Use of Animals for Scientific Purposes and with approval by the institutional animal ethics committee. BALB/c nude mice (Nu/Nu, female, 5-6 weeks old) were purchased from the Animal Resources Centre (Perth, Wash.) and maintained under pathogen-free conditions. A549 cells (5×106) in 100 μl PBS were injected subcutaneously into the flanks of the mice and the resulting tumour were measured using digital callipers. The tumour volume was calculated using the following formula: Volume=(larger diameter)×(small diameter)2/2. Once the tumours had reached 100 mm3, mice were divided into groups of 9 and each group administered either RB-012 in saline, FTY720 in saline or saline alone by intraperitoneal injection daily. Initially RB-12 and FTY720 were administered at 2 mg/kg for two days and then the dose was increased to 5 mg/kg for two weeks after which RB-012 was increased to 10 mg/kg but FTY720 maintained at 5 mg/kg. During this dosing regime tumours were monitored twice a week. Differences between samples were analysed using 2 way Anova and statistical significance was accepted at P<0.05.
To assess the effect of RB-012 on human lung cancer growth in vivo, A549 cells were implanted subcutaneously on the flanks of Balb/C nude mice and tumours allowed to develop until they had reached a volume of 100 mm^3. RB-012 or saline was then administered daily to assess the effect on tumour growth. Initially, to reduce the cramping and encourage tolerance, 2 mg/kg RB-012 was administered for two days and then the dose was increased to 5 mg/kg daily for two weeks. Tumour volume was monitored twice a week and after two weeks of treatment mice administered RB-012 had tumours that were 20% smaller than mice receiving saline. […] The tumours on the RB-012 treated mice continued to grow more slowly and after the third week were 30% smaller than those of saline-treated mice (P<0.05). […] Therefore we were unable to increase FTY720 dosing to match RB-012.

[6] = Toxicity of daily intraperitoneal dosing in mice; type: in vivo, Balb/C nude mice
Experimental: Finally, we studied the effects of RB-012 in vivo. To assess any potential toxic effects, Balb/C nude mice were administered RB-012, delivered in saline, daily by intra-peritoneal injection at 5 mg/kg.

Compound: CCCCCCCCc1ccc(CC[N+]2(C)CCCCC2)cc1 [RB-012]
- cell viability / growth and survival (MTS), in words (A549 cells [1]): inhibited
- IC50 (A549 cells [1]; Homo sapiens, A549): 5.5 µM
- colony formation in soft agar (A549 cells [2]): slightly greater potency
- time at which BID cleavage is detected (Jurkat cells [3]): 3 h
- time at which PARP cleavage is detectable (Jurkat cells [3]): 2 h
- time at which clipping of 14-3-3 protein is detectable (Jurkat cells [3]): 2 h
- time to commitment to apoptosis (Jurkat cells [3]): 2 to 3 h
- effect on SK activity (sphingosine kinases (SK)): does not affect SK activity
- ED50 for apoptosis induction, in words (Jurkat cells [4]): low micromolar range
- Annexin V presentation (Jurkat cells [4]; 5 μM, 24 hours): Annexin V presentation
- cell viability (Jurkat cells [4]; 5 μM, 24 hours): loss of viability
- apoptosis as determined by caspase-3 activation (Jurkat cells [4]; 5 μM, within 5 hours): readily able to activate apoptosis
- caspase-3 activation (A549 cells [5]): induce caspase activation; also recorded: greater potency
- tolerability at 10 mg/kg (A549 xenograft; 10 mg/kg daily i.p.): well tolerated without adverse effects
- tumours smaller than in mice receiving saline (A549 xenograft; after two weeks, 2 mg/kg for two days, then 5 mg/kg daily i.p.): 20%
- growth of A549 xenograft, in words (A549 xenograft; daily i.p., 2 then 5 then 10 mg/kg): retarded
- time within which cramping after injection subsided ([6]; 5 mg/kg daily intra-peritoneal): 10 to 20 min
- adverse effects ([6]; 5 mg/kg daily intra-peritoneal in saline, 28 days): no adverse effects were noted with the exception of minor cramping
- body weight ([6]; 5 mg/kg daily intra-peritoneal, 28 days): unaltered
- steady state haemopoiesis (blood and bone marrow samples) ([6]; end of treatment period, data not shown): no changes were observed
